PubChem BioAssay (NCI)
Where “and” joins values, the source holds several entries; their conditions need not be identical. Equal values may be shown once.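 All cell lines were grown in 96-well plates and treated with compound for 48 hours. Abbreviation: GI50, concentration required for 50% inhibition of growth. TGI: total growth inhibition.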

Legend:
Experiment in all cases: growth of human tumour cells (NCI), 48 h
ACHN renal = tested on: ACHN renal
OVCAR-3 ovarian = tested on: OVCAR-3 ovarian
MALME-3M melanoma = tested on: MALME-3M melanoma
786-0 renal = tested on: 786-0 renal
K-562 leukemia = tested on: K-562 leukemia
HOP-92 NSCLC = tested on: HOP-92 NSCLC
HCT-116 colon = tested on: HCT-116 colon
CAKI-1 renal = tested on: CAKI-1 renal
KM12 colon = tested on: KM12 colon
RPMI-8226 leukemia = tested on: RPMI-8226 leukemia

Compound | TGI (ACHN renal) [µM] | TGI (OVCAR-3 ovarian) [µM] | TGI (MALME-3M melanoma) [µM] | TGI (786-0 renal) [µM] | TGI (K-562 leukemia) [µM] | GI50 (HOP-92 NSCLC) | TGI (HOP-92 NSCLC) | GI50 (HCT-116 colon) | TGI (HCT-116 colon) | TGI (CAKI-1 renal) [µM] | TGI (KM12 colon) [µM] | GI50 (RPMI-8226 leukemia) | TGI (RPMI-8226 leukemia) [µM]
Cc1cc(=O)c2c(O)c3c(O)cc(O)c4c5c(O)cc(O)c6c(O)c7c(=O)cc(C)c8c1c2c(c34)c(c65)c78 | > 100 | > 100 | > 100 | > 100 | > 100 | 36.7 µM and 15.1 µM | > 100 µM and 47.4 µM | > 100 µM and 21.6 µM | > 100 µM and 64.2 µM | > 100 | > 100 | > 100 µM and 22.3 µM | > 100
Cc1ccc([N+](=O)[O-])cc1S(=O)(=O)Nc1ccc(C2=NN(c3ccc([N+](=O)[O-])cc3[N+](=O)[O-])C(c3ccccc3O)C2)cc1 (stereo not drawn) | > 100 | 61.3 | > 100 | > 100 | > 100 | – | > 100 µM | – | > 100 µM | > 100 | > 100 | – | > 100
CC(/C=N/NC1=NCCCCN1)=N\NC1=NCCCCN1 | > 100 | > 100 | 84 | > 100 | > 100 | – | > 100 µM | – | > 100 µM | > 100 | > 100 | – | > 100
Cc1ccccc1NC(=S)N=Nc1c(O)[nH]c2ccccc12 | > 100 | > 100 | > 100 | > 100 | > 100 | – | > 100 µM | – | > 100 µM | > 100 | > 100 | – | > 100
CC(=O)O[C@H]1CC[C@@]2(C)C(=CC[C@@H]3[C@@H]2CC[C@]2(C)c4nc(N)c(C#N)cc4C[C@@H]32)C1 | > 100 | 23.8 | > 100 | > 96 | > 100 | – | > 100 µM | – | > 100 µM | > 100 | > 100 | – | > 100
C[C@]12CCC(=O)C=C1CC[C@@H]1[C@@H]2C(=O)C[C@@]2(C)[C@H]1CC[C@]2(O)C(=O)CO | > 100 | > 100 | > 100 | > 100 | > 100 | – | > 100 µM | – | > 100 µM | > 100 | > 100 | – | > 100
O=C(NCCO)c1c(O)c2ccccc2[nH]c1=O | > 100 | > 100 | > 100 | > 100 | > 100 | – | > 100 µM | – | > 100 µM | > 100 | > 100 | – | > 100
O=[N+]([O-])c1cccc2nc3ccccc3c(NCCC[N+]3([O-])CCCCC3)c12 | 47.5 | 0.852 | 0.352 | 3.34 | > 100 | – | 0.746 µM | – | 1.04 µM | > 100 | 2.07 | – | 10.5
COC(=O)c1ccc(C)cc1C1CN=NC12Cc1cc(C)c(C)cc1C2=O (stereo not drawn) | > 100 | > 100 | > 100 | > 100 | > 100 | – | > 100 µM | – | > 100 µM | > 100 | > 100 | – | > 100
CC1NOC(NS(=O)(=O)c2ccc(N=Nc3c(O)c(C(=O)O)cc4ccccc34)cc2)C1C (stereo not drawn) | > 100 | > 100 | > 100 | > 100 | > 100 | – | > 100 µM | – | > 100 µM | > 100 | > 100 | – | > 100
CC(C)OC(=O)c1ccc(CCC2=CC(=O)C(Br)=CC2=O)cc1 | 27.8 | 29 | 29.1 | 30.2 | 9.12 | – | 24.9 µM | – | 30.6 µM | 38.4 | 26.5 | – | 43.3
N#CC1N(C(=O)c2ccc(F)cc2)c2ccccc2N1C(=O)c1ccc(F)cc1 | > 100 | > 100 | > 100 | > 100 | > 100 | – | 68.8 µM | – | > 100 µM | > 100 | > 100 | – | 75.4
O=C(c1ccc(Cl)cc1)N(Cc1cccnc1)C(=S)N(Cc1cccnc1)C(=O)c1ccc(Cl)cc1 | > 100 | > 100 | > 100 | 48.2 | > 100 | – | > 100 µM | – | 80.3 µM | > 100 | > 100 | – | > 100
Cc1cccc2c(N)c3cccc(C(=O)NCC[N+](C)(C)Cc4sc(N5CCOCC5)nc4[N+](=O)[O-])c3nc12 | 2.28 | 14.6 | 24.7 | 6.24 | > 100 | – | > 100 µM | – | 20.6 µM | 4.64 | 17.6 | – | > 100
C=C1C(=O)[C@]23[C@H](O)[C@H]1CC[C@H]2[C@@]12CO[C@@]3(O)C[C@@H]1C(C)(C)CC[C@@H]2O | 18.9 | > 25 | 23.4 | > 25 | > 25 | – | > 25 µM | – | 16.2 µM | > 25 | 18.4 | – | > 25
CC(=O)NC1C(OCc2ccccc2)OC(CO)C(O)C1OCC(=O)NC(C)C(=O)NC(CCC(=O)NCCCCCC(=O)Nc1ccc2c(c1)CN1C(=O)c3ccccc3C1=N2)C(N)=O (stereo not drawn) | > 100 | > 100 | > 100 | > 100 | > 100 | – | 90.9 µM | – | > 100 µM | > 100 | > 100 | – | > 100
COc1ccc2[nH]c(C(=O)N3CC(CCl)c4ccc([N+](=O)[O-])cc43)cc2c1 (stereo not drawn) | > 100 | > 100 | > 100 | > 100 | > 100 | – | > 100 µM | – | > 100 µM | > 100 | > 100 | – | > 100
CN(N)C(=O)NCCCl | > 100 | > 100 | > 100 | > 100 | > 100 | – | > 100 µM | – | > 100 µM | > 100 | > 100 | – | > 100
COC(=O)C[C@H](COCc1ccccc1)NC(=O)C[C@H](COCc1ccccc1)NC(=O)C[C@H](COCc1ccccc1)NC(=O)OC(C)(C)C | > 100 | > 100 | > 100 | 72.9 | > 100 | – | 73.5 µM | – | 67 µM | > 100 | > 100 | – | > 100
O=C(NN=C1CCCCC1)Nc1ccccc1Cl | > 100 | 38.8 | > 100 | > 100 | > 100 | – | 94.3 µM | – | > 100 µM | > 100 | > 100 | – | > 100
O=C1C=CC2(O[C@@H](Cc3ccccc3)[C@H](Cc3ccccc3)O2)C(SC(=O)c2ccccc2)C1 (stereo partly drawn) | 2.43 | 2.24 | 5.06 | 0.399 | 89.4 | – | 3.05 µM | – | 0.375 µM | 3.71 | 6.82 | – | 1.24
CC(O)(c1ccccc1)c1nccc2ccccc12 (stereo not drawn) | > 100 | > 100 | > 100 | > 100 | > 100 | – | 95.2 µM | – | > 100 µM | > 100 | > 100 | – | > 100
Cc1cc(S(=O)(=O)O)ccc1N=Nc1ccc(N=Nc2c(O)ccc3ccccc23)c(C)c1 | > 100 | > 100 | > 100 | 61.3 | > 100 | – | > 100 µM | – | > 100 µM | > 100 | 83.3 | – | > 100
